From US20090306373A1, “4,7-DIHYDROTHIENO[2,3-B]PYRIDINE COMPOUNDS AND PHARMACEUTICAL COMPOSITIONS” (priority 2005, published 2009)

Tested on: alpha-MyHC
Assay: alpha-MyHC cytoblot in neonatal rat ventricular myocytes (NRVM)
Assay type: cell-based
Conditions: for Max Plateau: fitted maximum, percent fraction of low control (vehicle), in %; for EC50: concentration giving 50% of maximum response
Description: In vitro activity of each compound is measured using the alpha-MyHC cytoblot process. Briefly, neonatal rat ventricular myocytes (NRVM) at 120,000 cells/ml in HyQ DME/High modified culture media supplemented with 10% charcoal/dextran treated FBS, 0.1% Nutridoma-SP, 1:100 MEM non-essential amino acids, 1:50 MEM amino acids solution w/o L-Gln, 1 mM sodium pyruvate and 1:100 P/S/G, are plated on gelatin coated sterile 384-well plates (Costar 3712) at 6,000 cells per well. Cells are incubated overnight at 37° C. in 5% CO2 100% humidity. Following overnight growth the media is changed to HyQ DME/High modified culture media supplemented with 0.3% Nutridoma-SP, 1:100 MEM non-essential amino acids, 1:50 MEM amino acids solution w/o L-Gln, 1 mM sodium pyruvate and 1:100 P/S/G. Cells are then dosed with serial dilutions of each compound in DMSO. Each concentration in the dose range is dosed in quadruplicate. Dosing is done in such a way so that the final DMSO concentration was 0.44%. Compound dilutions are 3-fold with the final top concentration of 10 uM. […] Following dosing, the cells are incubated for 72 hours at 37° C. in 5% CO2 100% humidity and then processed with the cytoblot method. Briefly, cell media is aspirated and cell monolayers washed with PBS and fixed with 100% methanol for 30 minutes. Fixed cells are then blocked with PBS, 0.05% Tween-20, 1% BSA, for 1 hour. Following blocking, cells are incubated with primary alpha-MyHC-specific antibody (1:30 dilution of BA-G5 hybridoma conditioned media, ATCC HB276) for 1 hour. Following incubation with the primary antibody, cells are washed with PBS, 0.05% Tween-20, 1% BSA and incubated with secondary antibody (1:1000 dilution, goat-anti-mouse HRP, Southern Biotech, 1031-05) for 1 hour. Following incubation with the secondary antibody, wells are washed and incubated in SuperSignal, West Dura HRP-luminescence substrate for 30 seconds under shaking at room temperature. Luminescence is measured using a Packard Fusion plate reader. […] RLU values are converted into percent fraction of low control and dose responses are fitted to a sigmoidal 4-parameter equation (XLFit, IDBS) where the EC50 and Max Plateau values were extracted. […] Max Plateau is the […] maximum value determined by the dose response fit.

[1] = Rattus norvegicus, Ventricular myocyte, Table 1, 72 hours

| Structure (SMILES) | Max Plateau (Table 1, 72 hours) | other results |
| --- | --- | --- |
| CCC(=O)C1=C(CC)Nc2sc(C(=O)c3ccc(Cl)c(Cl)c3)c(N)c2C1c1ccccc1C (stereo not drawn) [Compound 56] | 293.74 ± 50.82 |  |
| CCC1=C(C(=O)OC)C(c2cc(F)cc(F)c2)c2c(sc(C(=O)c3ccccc3)c2N)N1 (stereo not drawn) [Compound 172] |  | Max Plateau (Table 2, 72 hours): 304.08 |
| CCC(=O)C1=C(CC)Nc2sc(C(=O)c3ccc(Cl)c(Cl)c3)c(N)c2C1c1cccnc1 (stereo not drawn) [Compound 75] | 226.71 ± 40.80 |  |
| CC(=O)C1=C(C)Nc2sc(C(=O)c3ccc(Cl)c(Cl)c3)c(N)c2C1c1ccc(Cl)c(Cl)c1 (stereo not drawn) [Compound 47] | 173.47 ± 25.64 |  |
| COC(=O)c1cccc(C(=O)c2sc3c(c2N)C(c2ccccc2)C(C(C)=O)=C(C)N3)c1 (stereo not drawn) [Compound 62] | 279.31 ± 67.94 |  |
| CCC(=O)C1=C(CC)Nc2sc(C(=O)c3ccc(Cl)c(Cl)c3)c(N)c2C1c1ccc2ccccc2c1 (stereo not drawn) [Compound 88] | 113.45 ± 11.92 |  |
| CCC(=O)C1=C(CC)Nc2sc(C(=O)c3ccccc3Cl)c(N)c2C1c1ccccc1 (stereo not drawn) [Compound 82] | 245.96 ± 30.73 |  |
| COCCOCN1C(C)=C(C(C)=O)C(c2ccccc2)c2c1sc(C(=O)c1ccccc1)c2N (racemic) [Compound 209] |  | Max Plateau (Table 5, 72 hours): 192.74 |
| CCOC(=O)C1=C(CC)Nc2sc(C(=O)c3cc(F)cc(F)c3)c(N)c2C1c1ccccc1 (stereo not drawn) [Compound 151] |  | Max Plateau (Table 2, 72 hours): 273.61 |
| CCC(=O)C1=C(CC)Nc2sc(C(=O)c3ccc(Cl)c(Cl)c3)c(N)c2C1c1cc(F)cc(F)c1 (stereo not drawn) [Compound 100] | 262.04 ± 31.65 |  |
| CCC(=O)C1=C(CC)Nc2sc(C(=O)c3ccc(Cl)c(Cl)c3)c(N)c2C1c1ccc(OC)cc1F (stereo not drawn) [Compound 81] | 184.00 ± 15.51 |  |
| CCOC(=O)C1=C(CC)Nc2sc(C(=O)c3ccc(Cl)c(Cl)c3)c(N)c2C1c1ccccc1F (stereo not drawn) [Compound 142] |  | Max Plateau (Table 2, 72 hours): 194.32 |
| CCOC(=O)C1=C(CC)Nc2sc(C(=O)c3ccc(Cl)c(Cl)c3)c(N)c2C1c1ccncc1Cl (stereo not drawn) [Compound 169] |  | Max Plateau (Table 2, 72 hours): 261.04 |
| CCC(=O)C1=C(CC)Nc2sc(C(=O)c3ccccc3)c(N)c2C1c1ccccc1F (stereo not drawn) [Compound 78] | 269.77 ± 35.30 |  |
| CCOC(=O)C1=C(CC)Nc2sc(C(=O)c3ccc(Cl)c(Cl)c3)c(N)c2C1c1ccncc1F (stereo not drawn) [Compound 168] |  | Max Plateau (Table 2, 72 hours): 239.64 |
| CCC(=O)C1=C(CC)Nc2sc(C(=O)c3ccc(Cl)cc3)c(N)c2C1c1ccccc1 (stereo not drawn) [Compound 80] | 226.13 ± 5.25 |  |
| CCC(=O)C1=C(CC)Nc2sc(C(=O)c3ccc(Cl)c(Cl)c3)c(N)c2C1c1ccncc1 (stereo not drawn) [Compound 104, 1-[3-amino-2-(3,4 dichloro-benzoyl)-6-ethyl-4 pyridin-4-yl-4,7 dihydro-thieno[2,3-b]pyridin-5-yl]-propan-1-one] |  | EC50 [1]: 24.8 nM |
| CCC1=C(C(=O)OC)C(c2c(F)cccc2F)c2c(sc(C(=O)c3cccc([N+](=O)[O-])c3)c2N)N1 (stereo not drawn) [Compound 141] |  | Max Plateau (Table 2, 72 hours): 261.69 |
| CCCC(=O)C1=C(CCC)Nc2sc(C(=O)c3cc(Cl)ccc3Cl)c(N)c2C1c1ccccc1F (stereo not drawn) [Compound 92] | 189.00 ± 25.40 |  |
| CCOC(=O)C1=C(C)Nc2sc(C(=O)c3cccc(Br)c3)c(N)c2C1(C)c1ccccc1 (stereo not drawn) [Compound 197] |  | EC50 (Table 4, 72 hours): 792 nM; Max Plateau (Table 4, 72 hours): 159.55 ± 10.94 |
| CCC1=C(C(=O)OC2CCCCC2)C(c2ccccc2)c2c(sc(C(=O)c3ccc(Cl)c(Cl)c3)c2N)N1 (stereo not drawn) [Compound 160] |  | Max Plateau (Table 2, 72 hours): 186.95 |
| CC(=O)C1=C(C)Nc2sc(C(=O)c3cccnc3)c(N)c2C1c1ccccc1 (stereo not drawn) [Compound 5] | 286.43 ± 42.04 |  |
| CC(=O)C1=C(C)Nc2sc(C(=O)c3ccc(Cl)c(Cl)c3)c(N)c2C1c1ccccc1 (stereo not drawn) [Compound 2] | 207.74 ± 23.00 |  |
| CCC1=C(C(=O)OC)C(c2cccc(Cl)c2F)c2c(sc(C(=O)c3cccc([N+](=O)[O-])c3)c2N)N1 (stereo not drawn) [Compound 156] |  | Max Plateau (Table 2, 72 hours): 243.78 |
| Nc1c(C(=O)c2ccccc2)sc2c1C(c1ccccc1)C(C(=O)c1ccccc1)=C(c1ccccc1)N2 (stereo not drawn) [Compound 30] | 100.00 ± 0.00 |  |

| Structure (SMILES) | Max Plateau (Table 1, 72 hours) | other results |
| --- | --- | --- |
| CCC(=O)C1=C(CC)Nc2sc(C(=O)c3cccc(C(=O)O)c3)c(N)c2C1c1ccccc1 (stereo not drawn) [Compound 77] | 220.00 ± 10.00 |  |
| CC(=O)C1=C(C)Nc2sc(C(=O)c3ccccc3)c(N)c2C1c1ccc(F)cc1 (stereo not drawn) [Compound 37] | 227.92 ± 12.46 |  |
| CCC(=O)C1=C(CC)Nc2sc(C(=O)c3ccc(F)c(F)c3)c(N)c2C1c1ccccc1 (stereo not drawn) [Compound 72] | 223.99 ± 24.51 |  |
| CC(=O)C1=C(C)Nc2sc(C(=O)c3ccc(Cl)c(Cl)c3)c(N)c2C1c1ccc[nH]1 (stereo not drawn) [Compound 42] | 160.56 ± 20.02 |  |
| CCC1=C(C(=O)OC)C(c2ccccc2)c2c(sc(C(=O)c3cccc([N+](=O)[O-])c3)c2N)N1 (stereo not drawn) [Compound 139] |  | Max Plateau (Table 2, 72 hours): 281.08 |
| CCC1=C(C(=O)OC)C(c2ccnc(F)c2)c2c(sc(C(=O)c3cccc(Cl)c3)c2N)N1 (racemic) [Compound 175] |  | Max Plateau (Table 2, 72 hours): 289.91 |
| CC(=O)C1=C(C)Nc2sc(C(=O)c3ccc(Cl)c(Cl)c3)c(N)c2C1c1cccs1 (stereo not drawn) [Compound 41] | 178.47 ± 7.82 |  |
| CCC(=O)C1=C(CC)Nc2sc(C(=O)c3ccc(C#N)cc3)c(N)c2C1c1ccccc1 (stereo not drawn) [Compound 112] | 266.67 ± 57.74 |  |
| CCC(=O)C1=C(CC)Nc2sc(C(=O)c3ccc(Cl)c(Cl)c3)c(N)c2C1c1cccc(F)c1 (stereo not drawn) [Compound 84] | 242.72 ± 19.34 |  |
| COC(=O)C1=C(C(C)(C)C)Nc2sc(C(=O)c3ccc(Cl)c(Cl)c3)c(N)c2C1c1ccccc1 (stereo not drawn) [Compound 131] |  | Max Plateau (Table 2, 72 hours): 158.97 |
| CCC(=O)C1=C(CC)Nc2sc(C(=O)c3ccccc3Br)c(N)c2C1c1ccccc1 (stereo not drawn) [Compound 106] | 244.21 ± 29.53 |  |
| CCC(=O)C1=C(CC)Nc2sc(C(=O)c3ccccc3F)c(N)c2C1c1ccccc1 (stereo not drawn) [Compound 67] | 256.12 ± 53.66 |  |
| CCOC(=O)C1=C(CC)Nc2sc(C(=O)c3cc(Cl)ccc3Cl)c(N)c2C1c1ccccc1 (stereo not drawn) [Compound 146] |  | Max Plateau (Table 2, 72 hours): 213.49 |
| CCC1=C(C(=O)OC)C(c2cc(F)cc(F)c2)c2c(sc(C(=O)c3ccc(F)c(F)c3)c2N)N1 (stereo not drawn) [Compound 170] |  | Max Plateau (Table 2, 72 hours): 262.16 |
| COC(=O)C1=C(C(C)C)Nc2sc(C(=O)c3ccc(Cl)c(Cl)c3)c(N)c2C1c1cccc([N+](=O)[O-])c1 (stereo not drawn) [Compound 134] |  | Max Plateau (Table 2, 72 hours): 98.33 |
| COc1ccc(C2C(C(C)=O)=C(C)Nc3sc(C(=O)c4ccccc4)c(N)c32)cc1 (stereo not drawn) [Compound 14] | 182.73 ± 26.95 |  |
| CCC(=O)C1=C(CC)Nc2sc(C(=O)c3ccc(Cl)c(Cl)c3)c(N)c2C1c1cccc([N+](=O)[O-])c1 (stereo not drawn) [Compound 58] | 232.20 ± 56.57 |  |
| CCC(=O)C1=C(CC)Nc2sc(C(=O)c3ccc(F)c(F)c3)c(N)c2C1c1ccccc1F (stereo not drawn) [Compound 108, 1-[3-amino-2-(3,4 difluoro-benzoyl)-6-ethyl-4-(2 fluoro-phenyl)-4,7 dihydro-thieno[2,3-b]pyridine-5-yl]propan-1-one] |  | EC50 [1]: 4.02 nM |
| COc1cccc(C2C(C(C)=O)=C(C)Nc3sc(C(=O)c4ccccc4)c(N)c32)c1 (stereo not drawn) [Compound 15] | 126.50 ± 24.27 |  |
| CCC(=O)C1=C(CC)Nc2sc(C(=O)c3ccc(F)cc3)c(N)c2C1c1ccccc1 (stereo not drawn) [Compound 79] | 241.90 ± 15.79 |  |
| CC(=O)C1=C(C)Nc2sc(C(=O)c3ccccc3)c(N)c2C1c1ccncc1 (stereo not drawn) [Compound 19] | 260.00 ± 36.06 |  |
| CC(=O)C1=C(C)Nc2sc(C(=O)c3ccccn3)c(N)c2C1c1ccccc1 (stereo not drawn) [Compound 16] | 163.33 ± 32.15 |  |
| CCC(=O)C1=C(CC)Nc2sc(C(=O)c3ccc(Cl)c(Cl)c3)c(N)c2C1c1cccc(Cl)c1 (stereo not drawn) [Compound 54] | 267.44 ± 32.29 |  |
| CCC(=O)C1=C(CC)Nc2sc(C(=O)c3ccc(Cl)c(Cl)c3)c(N)c2C1c1c(F)cccc1Cl (stereo not drawn) [Compound 40] | 244.87 ± 7.92 |  |
| CCC(=O)C1=C(CC)Nc2sc(C(=O)c3ccc(Cl)c(Cl)c3)c(N)c2C1c1ccccc1C(F)(F)F (stereo not drawn) [Compound 60] | 100.00 ± 0.00 |  |
